Results reported in patent US6365620B2, “Trifluoromethylpyrrolcarboxamides” (Syngenta Crop Protection, Inc., priority 1998, dated 2002).

melting point: 100 to 102 °C
SMILES: Cn1cc(C(=O)Nc2ccccc2-c2ccccc2)c(C(F)(F)F)c1 [Compound 1.01, N-(2-biphenylyl)-1-methyl-4-trifluoromethylpyrrol-3-carboxamide]
